In data set [1] the test system is patients. The settings on record: cited from earlier work.
Data set [2] has as its system patients with senile dementia of Alzheimer's type. Nature of the data set: clinical study, safety assessment and dropouts. The conditions noted are these: for subjects dropped out: subjects in this study (groups not separated). It is filed as in vivo, human. As to the method: (§1) In patients with senile dementia of Alzheimer's type, a double-blind placebo controlled multicenter comparative study was conducted under the conditions shown below.
(§2) 451 patients with senile dementia of Alzheimer's type (154 males, 297 females)
(§3) (1) Placebo administration
Group 3 (placebo administration), 153 patients (54 males, 99 females; average age 70 years)
(§4) Oral administration just after every meal
(§5) Clinical laboratory values

The test system of data set [3] is GPT. Nature of the data set: hepatic clinical laboratory value GPT in patients. In kind it is in vivo, human. The settings on record: for GPT Level: single patients. As to the method: as §1, §2, §3, §4, §5
For data set [4], the system named is patients with senile dementia of Alzheimer's type. Kind of data set: double-blind placebo controlled multicenter study, efficacy parameters (ADAS, CGI, NOSGER, SKT). It is filed as in vivo, human. On the procedure: as §1, §3, §4
Data set [5] has the same test system. The conditions noted are these: 90 mg per day per adult; cited from earlier work.
Data set [6] relates to passive avoidance learning deficit in old rats. Nature of the data set: passive avoidance learning in old rats. The conditions noted are these: idebenone 3 mg/kg, Compound A 0.3 mg/kg, oral, or both; for retention trials, learning deficit: 24 hours after shock loading. It is filed as in vivo, rats of the Fischer 344 strain. On the procedure: (§6) The old rats were divided into the following four groups.
(§7) Passive avoidance learning tests were started on day 14 of treatment, and Morris water maze learning tests on day 20 of treatment.
The passive avoidance learning test was performed using a chamber consisting of light and dark compartments. […] After a rat moved to the dark compartment, the rat was kept there for about 10 seconds with the door closed. One to two hours after such habituation trials, acquisition trials were performed.
In acquisition trials, after a rat moved to the dark compartment, a foot shock (0.4 mA, 3 seconds) was given through the grid floor. Retention trials were performed 24 hours after acquisition trials.
In each trial, the latency from opening of the slide door till the animal moved to the dark compartment (step-through latency) was measured.

Data set [7] deals with water maze learning deficit in old rats. Nature of the data set: Morris water maze learning in old rats. The conditions noted are these: for average latency to find the platform for all trials, vs control group / water maze learning deficit, overall: idebenone 3 mg/kg, Compound A 0.3 mg/kg, oral, or both. It is filed as in vivo, rats of the Fischer 344 strain. As to the method:
as §6, §7
In pretraining which was performed for swimming training and motivation for escaping from water, four trials were performed using a water bath, 80 cm in diameter, in a condition that the platform was visible. From the following day, using a water bath, 120 cm in diameter, learning trials, one session (four trials) per day, were performed with the platform being placed below the water.

Data set [8] has as its system GOT. Kind of data set: hepatic clinical laboratory value GOT in patients. In kind it is in vivo, human. The settings on record: for GOT Level: single patients. As to the method:
as §1, §2, §3, §4, §5

The mark [9] stands for this setting: 6 Months of Administration, 90 mg 3 times daily.
The mark [10] stands for this setting: 6 Months of Administration, 120 mg 3 times daily.
Where [11] appears, read: 270 or 360 mg per day, 6 months, vs placebo.
Setting [12] is: Pre-administration (baseline), 90 mg 3 times daily group.
[13] abbreviates: Pre-administration (baseline), 120 mg 3 times daily group.
Setting [14] is: 90 mg, 120 mg 3-times-a-day and placebo.

“And” between values parts separate entries of the source, which are not always exact repeats. Equal values may be shown once. Where a name gives a salt, the structure may show the parent alone. Read-outs that look alike come from different tables or passages of the source.

These results are taken from patent US5916925A, “Pharmaceutical composition for treatment of dementia” (Takeda Chemical Industries, Ltd., priority 1996, dated 1999).

With `Nc1c2c(nc3ccccc13)CCCC2` [tacrine], the “patients who withdrew from the treatment” value in data set [1] (30-week administration of tacrine) is 74%. In addition, the subjects dropped out in data set [1] (high-dose tacrine group, by 30 weeks) is reported as 74%; in data set [1] (low-dose tacrine group, until final administration by 30 weeks), 59%; in data set [1] (moderate-dose tacrine group, by 30 weeks), 71%. In data set [1] (tacrine, study period), the “dropouts or discontinuations due to adverse reactions” value is “a large number of dropouts or discontinuations occurred due to adverse reactions”. Also, the “adverse effects on long-term administration” value in data set [1] (tacrine) is given as “hepatic toxicity”.

In the case of `COC1=C(OC)C(=O)C(CCCCCCCCCCO)=C(C)C1=O` [idebenone, 6-(10-hydroxydecyl) -2,3-dimethoxy-5-methyl-1,4-benzoquinone], the “incidence and severity of accompanying symptoms” value in data set [2] (90 mg and 120 mg 3-times-a-day vs placebo) is “No differences were noted among the three groups”. In addition, the subjects dropped out is reported as 9% in data set [2] (by 6 months) and “about 15%” in data set [2] (by 12 months). In data set [2] (idebenone administration groups), the “elevation of clinical laboratory values (GOT and GPT)” value was “very low”. In addition, the “major objective and subjective symptoms” value in data set [2] (three groups together) is “vertigo, anorexia, sleep disturbance and arthralgia”. The “GPT Level” value in data set [3] (setting [9]) was 61 U/L and 54 U/L and 34 U/L and 43 U/L and 26 U/L and 37 U/L and 35 U/L and 50 U/L; in data set [3] (setting [10]) it was 26 U/L and 39 U/L and 43 U/L and 55 U/L and 25 U/L and 38 U/L and 60 U/L; in data set [3] (setting [12]), 25 U/L and 34 U/L and 36 U/L and 63 U/L and 9 U/L and 14 U/L and 29 U/L and 33 U/L; in data set [3] (setting [13]), 22 U/L and 14 U/L and 28 U/L and 29 U/L and 37 U/L and 31 U/L. For the same molecule, the “change in GPT level” value in data set [3] (setting [11]) was “little change in GPT level and GOT level”. For the same molecule, the “ADAS Sum Score, relief compared with placebo” value in data set [4] (90 mg 3-times-a-day, 6 months) was “significant relief”; in data set [4] (90 mg 3-times-a-day, 12 months), “significant relief”; in data set [4] (120 mg 3-times-a-day, 6 months), “significant relief”; in data set [4] (120 mg 3-times-a-day, 12 months) it was “significant relief”. Further, the “ADAS Sum Score, dose dependence of effect” value in data set [4] (90 mg and 120 mg 3-times-a-day, 6 and 12 months) is on record as “dose dependent”. In data set [4] (setting [14]), the “ADAS Cognitive Score, differences among groups” value is “significant differences among the three groups were noted, with dose dependency”. Moreover, the “CGI Global Improvement, differences among groups” value in data set [4] (setting [14]) is “significant differences among the three groups were noted, with dose dependency”. The “CGI Severity of Disease, differences among groups” value in data set [4] (setting [14]) is recorded as “significant differences among the three groups were noted, with dose dependency”. For the same molecule, the “NOSGER IADL, differences among groups” value in data set [4] (setting [14]) is listed as “significant differences among the three groups were noted, with dose dependency”. In addition, in data set [4] (setting [14]), the “NOSGER Sum Score, differences among groups” value was “significant differences among the three groups were noted, with dose dependency”. Also, the “SKT, differences among groups” value in data set [4] (setting [14]) is given as “significant differences among the three groups were noted, with dose dependency”. For the same molecule, the “effect in comparison with published clinical data on tacrine” value is “better effects” in data set [4] (270 mg (90 mg, 3-times-a-day)) and “better effects” in data set [4] (360 mg (120 mg, 3-times-a-day)). The “magnitude of effect, irrespective of assessment method” value in data set [4] (360 mg idebenone administration group) is given as “marked effect”. The symptom progression result in data set [4] (FIGS. 1 to 7) was “symptom progression was surely suppressed”. Also, in data set [4] (period exceeding 6 months), the “symptom-relieving and symptom progression-suppressing effects, 12 months vs 6 months” value was “greater symptom-relieving and symptom progression-suppressing effects are noted at 12 months than at 6 months”. Also, the “efficacy in senile dementia of Alzheimer's type” value in data set [5] is “effective”. Also, the “retention trials, learning deficit” value in data set [6] is on record as “tended to show improvements in learning deficit in old rats but the effect was not significant”. The “passive avoidance learning deficit, overall” value in data set [6] is given as “did not improve passive avoidance learning deficit in old rats”. Moreover, in data set [7], the “average latency to find the platform for all trials, vs control group” value was “did not show significant shortening of average latency compared with the control group”. Besides, the “water maze learning deficit, overall” value in data set [7] is “did not improve water maze learning deficit in old rats”. Moreover, the “water maze learning deficit (latency to find the platform)” value in data set [7] (latter period of training, idebenone 3 mg/kg oral) was “slight tendency toward improvement in water maze learning deficit”. Further, the “GOT Level” value in data set [8] (setting [9]) is 45 U/L and 38 U/L and 60 U/L and 86 U/L and 49 U/L and 32 U/L and 47 U/L and 26 U/L and 29 U/L; in data set [8] (setting [10]), 41 U/L and 27 U/L and 28 U/L and 34 U/L and 37 U/L and 23 U/L and 131 U/L; in data set [8] (setting [12]) it was 19 U/L and 27 U/L and 33 U/L and 32 U/L and 15 U/L and 29 U/L and 13 U/L and 22 U/L; in data set [8] (setting [13]), 23 U/L and 24 U/L and 29 U/L and 21 U/L and 25 U/L. In data set [8] (setting [11]), the “change in GOT level” value is “little change in GPT level and GOT level”.

As to `O=C(CCC1CCN(Cc2ccccc2)CC1)c1ccc2c(c1)NCCCC2` [Compound A, 8-[1-oxo-3-(phenylmetyl)piperidin-4-yl]propyl]-2,3,4,5-tetrahydro-1H-1-benzazepine fumarate], in data set [6], the “retention trials, learning deficit” value was “tended to show improvements in learning deficit in old rats but the effect was not significant” and the “passive avoidance learning deficit, overall” value was “did not improve passive avoidance learning deficit in old rats”. Besides, in data set [7] (day 2 of experiment), the “water maze learning (latency to find the platform)” value was “significant improvement”. Also, in data set [7] (day 3 of experiment), the “water maze learning (latency to find the platform)” value is recorded as “did not differ from the control group”. For the same molecule, in data set [7], the “average latency to find the platform for all trials, vs control group” value is on record as “did not show significant shortening of average latency compared with the control group” and the “water maze learning deficit, overall” value is reported as “did not improve water maze learning deficit in old rats”.
